Experimental data: the supplement of paper PMC10307832

Tests used:
Experiment in all cases: relative viability (nuclei count vs DMSO), 5 days (fraction); higher = more cells survive
[1] = compound: CC(=O)Nc1cccc(-n2c(=O)n(C3CC3)c(=O)c3c(Nc4ccc(I)cc4F)n(C)c(=O)c(C)c32)c1 [Trametinib] + CC(=O)c1c(C)c2cnc(Nc3ccc(N4CCNCC4)cn3)nc2n(C2CCCC2)c1=O [Palbociclib] (partner 0.5 µM)
Outline: (§1)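 Each reported value is a median over duplicate plates. It expresses relative viability: treated-well nuclei count divided by vehicle-well nuclei count. Lung cancer cell lines in 1536-well plates were dosed by pin tool a day after seeding, alone with one drug or with a fixed anchor-drug dose plus five library-drug doses (not always all listed) in √10 steps, and nuclei were counted after 5 days.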

[2] = compound: CC(=O)Nc1cccc(-n2c(=O)n(C3CC3)c(=O)c3c(Nc4ccc(I)cc4F)n(C)c(=O)c(C)c32)c1 [Trametinib] + CCNC(=O)c1noc(-c2cc(C(C)C)c(O)cc2O)c1-c1ccc(CN2CCOCC2)cc1 [Luminespib] (partner 0.01 µM)
Outline: as §1

[3] = compound: CC(=O)Nc1cccc(-n2c(=O)n(C3CC3)c(=O)c3c(Nc4ccc(I)cc4F)n(C)c(=O)c(C)c32)c1 [Trametinib] + O=C(c1cc(Cc2n[nH]c(=O)c3ccccc23)ccc1F)N1CCN(C(=O)C2CC2)CC1 [Olaparib] (partner 8 µM)
Outline: as §1

[4] = compound: CN1C=C(C2=CC=CC=C21)/C=C\3/C4=C(C=CC=N4)NC3=O + Nc1ncn([C@H]2C[C@H](O)[C@@H](CO)O2)c(=O)n1 [Decitabine] (partner 2 µM)
Outline: as §1

Cell Line	relative viability ([1]; first compound 0.0025 µM)	relative viability ([1]; first compound 0.007906 µM)	relative viability ([1]; first compound 0.025 µM)	relative viability ([1]; first compound 0.07906 µM)	relative viability ([1]; first compound 0.25 µM)	relative viability ([2]; first compound 0.0025 µM)	relative viability ([2]; first compound 0.007906 µM)	relative viability ([2]; first compound 0.025 µM)	relative viability ([2]; first compound 0.07906 µM)	relative viability ([2]; first compound 0.25 µM)	relative viability ([3]; first compound 0.0025 µM)	relative viability ([3]; first compound 0.007906 µM)	relative viability ([3]; first compound 0.025 µM)	relative viability ([3]; first compound 0.07906 µM)	relative viability ([3]; first compound 0.25 µM)	relative viability ([4]; first compound 0.02 µM)	relative viability ([4]; first compound 0.6325 µM)	relative viability ([4]; first compound 2 µM)	relative viability ([4]; first compound 0.06325 µM)	relative viability ([4]; first compound 0.2 µM)
SW 900	0.56	0.49	0.483	0.457	0.383	0.189	0.167	0.15	0.169	0.17	0.838	0.782	0.669	0.809	0.518	0.366	0.433	0.483	–	–
PC-3 [JPC-3]	0.556	0.581	0.483	–	0.575	0.656	0.574	0.385	0.405	0.396	1.12	0.927	0.982	–	0.699	0.863	0.786	0.812	0.777	0.863
NCI-H1703	–	–	–	–	–	–	–	–	–	–	0.492	0.513	0.323	0.385	0.274	–	–	–	–	–
EPLC-272H	0.293	0.303	0.262	0.207	0.239	0.222	0.22	0.251	0.129	0.117	0.628	0.406	0.332	0.322	0.173	0.382	0.333	0.336	0.345	–
NCI-H1792	0.6	0.51	0.49	0.382	0.303	0.399	0.348	0.294	0.286	0.238	0.479	0.415	0.348	0.186	0.244	0.439	0.497	0.511	0.648	0.645
NCI-H2085	0.494	0.421	0.371	0.395	0.406	0.415	0.325	0.263	0.288	0.329	0.766	0.659	0.558	0.638	0.615	0.523	0.491	0.525	0.494	0.559
LK-2	0.551	0.603	0.704	0.738	0.223	0.159	0.183	0.223	0.161	0.191	0.654	0.619	0.81	0.51	0.293	0.225	0.275	0.375	0.24	0.192
NCI-H1395	0.56	0.562	0.517	0.567	0.489	0.616	0.703	0.691	0.775	0.403	0.441	0.458	0.419	0.463	0.392	0.642	0.699	0.688	0.702	0.686
ABC-1	0.448	0.668	0.357	0.49	0.338	0.665	0.819	0.446	0.307	0.439	0.821	0.725	0.977	0.752	1.13	1.3	0.909	1.15	0.941	0.829
RERF-LC-KJ	1.03	0.857	0.914	0.848	0.66	1.21	1.19	1.14	1.09	0.736	0.926	0.81	0.919	0.907	0.648	0.736	0.666	0.687	0.633	0.708
LU99A	0.401	0.436	0.335	0.355	0.243	0.297	0.241	0.187	0.189	0.151	0.292	0.277	0.261	0.263	0.247	0.855	0.848	0.842	0.877	0.902
NCI-H650	0.421	0.469	0.487	0.535	0.374	0.862	0.828	0.659	0.578	0.375	0.444	0.434	0.568	0.649	0.542	0.316	0.293	0.188	0.338	–
NCI-H2347	0.372	0.363	0.324	0.316	0.291	0.513	0.254	0.205	0.208	0.303	0.535	0.383	0.372	0.321	0.316	0.563	0.582	0.608	0.552	0.588
HARA	0.236	0.202	0.205	0.192	0.198	0.75	0.534	0.694	0.234	0.13	0.696	0.832	0.664	0.449	0.308	0.373	0.597	0.524	0.477	–
NCI-H2228	0.649	0.595	0.57	0.369	0.235	0.15	0.0886	0.134	0.0863	0.112	0.691	0.541	0.641	0.422	0.224	–	–	–	–	–
EKVX	0.375	0.401	0.173	0.182	0.182	0.864	0.767	0.331	0.446	0.351	0.795	0.66	0.61	0.472	0.316	0.291	0.303	0.301	–	–
HCC-827	0.461	0.395	0.423	0.296	0.289	0.63	0.24	0.219	0.228	0.153	0.612	0.571	0.563	0.507	0.337	0.315	0.327	0.297	0.297	–
NCI-H1755	0.425	0.406	0.384	0.392	0.365	0.412	0.333	0.598	0.462	0.301	0.849	0.826	0.804	0.807	0.742	0.668	0.675	0.691	0.758	0.674
NCI-H661	0.429	0.404	0.377	0.311	0.348	0.914	0.917	0.888	0.702	0.641	0.718	0.704	0.633	0.637	0.564	0.594	0.564	0.555	0.562	0.496
NCI-H1944	0.316	0.246	0.223	0.207	0.163	0.624	0.489	0.429	0.377	0.22	0.39	0.343	0.341	0.288	0.236	0.423	0.415	0.416	0.419	–

Cell Line	relative viability ([1]; first compound 0.0025 µM)	relative viability ([1]; first compound 0.007906 µM)	relative viability ([1]; first compound 0.025 µM)	relative viability ([1]; first compound 0.07906 µM)	relative viability ([1]; first compound 0.25 µM)	relative viability ([2]; first compound 0.0025 µM)	relative viability ([2]; first compound 0.007906 µM)	relative viability ([2]; first compound 0.025 µM)	relative viability ([2]; first compound 0.07906 µM)	relative viability ([2]; first compound 0.25 µM)	relative viability ([3]; first compound 0.0025 µM)	relative viability ([3]; first compound 0.007906 µM)	relative viability ([3]; first compound 0.025 µM)	relative viability ([3]; first compound 0.07906 µM)	relative viability ([3]; first compound 0.25 µM)	relative viability ([4]; first compound 0.02 µM)	relative viability ([4]; first compound 0.6325 µM)	relative viability ([4]; first compound 2 µM)	relative viability ([4]; first compound 0.06325 µM)	relative viability ([4]; first compound 0.2 µM)
NCI-H23	0.472	0.414	0.268	0.209	0.175	0.234	0.185	0.17	0.213	0.221	0.287	0.269	0.269	0.239	0.147	0.321	0.336	0.347	0.295	0.306
NCI-H1648	0.251	0.284	0.278	0.336	0.303	–	–	–	–	–	0.828	0.671	0.88	0.653	0.555	0.5	0.448	0.327	0.453	0.496
NCI-H522	1.01	0.936	0.693	0.859	0.668	1.04	0.917	1	0.844	0.574	0.617	0.485	0.583	0.555	0.545	0.598	0.637	0.695	0.644	0.716
HCC-366	0.307	0.287	0.137	0.0839	0.0678	–	–	–	–	–	0.294	0.293	0.206	0.145	0.0982	0.304	0.369	0.342	0.335	0.349
EBC-1	–	–	–	–	–	–	–	–	–	–	0.745	0.681	0.543	0.179	0.195	–	–	–	–	–
ChaGo-K-1	0.926	0.778	0.912	0.852	0.75	0.729	0.515	0.511	0.646	0.464	0.435	0.405	0.405	0.412	0.359	0.519	0.534	0.476	0.515	0.5
LCLC-97TM1	0.166	0.141	0.15	0.13	0.115	0.802	0.493	0.291	0.226	0.234	0.304	0.41	0.254	0.188	0.0956	–	0.208	0.241	0.189	0.205
NCI-H1299	–	–	–	–	–	–	–	–	–	–	1.04	1	0.942	0.832	0.587	–	–	–	–	–
EMC-BAC-2	0.581	0.555	0.495	0.502	0.357	1.18	1.04	1.04	0.95	0.684	0.638	0.623	0.617	0.69	0.476	0.925	0.99	1.04	0.926	1.01
NCI-H1623	–	–	–	–	–	0.593	0.406	0.315	0.287	0.344	–	–	–	–	–	–	–	–	–	–
NCI-H441	0.154	0.172	0.132	0.147	0.132	0.331	0.264	0.362	0.285	0.327	0.601	0.614	0.535	0.483	0.389	0.225	0.229	0.497	0.247	0.23
LCLC-103H	0.484	0.44	0.483	0.468	0.507	0.769	0.761	0.735	0.767	0.668	0.723	0.638	0.655	0.593	0.581	0.724	0.696	0.732	0.732	0.684
IA-LM	–	–	–	–	–	–	–	–	–	–	0.826	0.74	0.244	0.242	0.167	–	–	–	–	–
CAL-12T	0.387	0.193	0.179	0.171	0.187	0.725	0.29	0.344	0.309	0.239	0.692	0.555	0.522	0.511	0.487	–	–	–	–	–
NCI-H596	–	–	–	–	–	0.901	0.775	0.65	0.727	0.523	0.664	0.594	0.589	0.516	0.463	1.03	1.88	1.81	1.06	0.958
A549	–	–	–	–	–	–	–	–	–	–	0.29	0.27	0.14	0.211	0.0478	0.332	0.225	0.324	0.207	0.133
NCI-H1563	–	–	–	–	–	0.515	0.481	0.505	0.476	0.569	–	–	–	–	–	–	–	–	–	–
Calu-6	–	–	–	–	–	–	–	–	–	–	0.589	0.452	0.214	0.142	0.129	–	–	–	–	–
HCC-78	0.452	0.46	0.398	0.457	0.449	–	–	–	–	–	0.774	0.642	0.82	0.808	0.557	0.557	0.614	0.65	0.588	0.652
